We go through 23 molecules from ChEMBL document CHEMBL2157956, “Antibacterial activity of substituted dibenzo[a,g]quinolizin-7-ium derivatives” (2012).

Converted amounts (≈) assume the structure as drawn. The source made the active and inactive calls.

For assay [1], the system named is Enterococcus faecalis. As to the kind of experiment: Antibacterial activity against vancomycin-sensitive Enterococcus faecalis ATCC 19433 by CLSI broth microdilution method. The class given is functional. A general note: Broth dilution looks for growth in wells or tubes with falling amounts of substance.
Assay [2] concerns Staphylococcus aureus. As to the kind of experiment: Antibacterial activity against methicillin-resistant Staphylococcus aureus ATCC 33591 by CLSI broth microdilution method. The assay is classed as functional.
The subject of assay [3] is Enterococcus faecalis. As to the kind of experiment: Antibacterial activity against vancomycin-resistant Enterococcus faecalis ATCC 51575 by CLSI broth microdilution method. The assay is classed as functional.
Assay [4] deals with Staphylococcus aureus. As to the kind of experiment: Antibacterial activity against methicillin-sensitive Staphylococcus aureus 8325-4 by CLSI broth microdilution method. The assay is classed as functional.
The target in assay [5] is T1, Cell division protein FtsZ (Staphylococcus aureus) (UniProt P0A031).
T1 sequence (whole entry): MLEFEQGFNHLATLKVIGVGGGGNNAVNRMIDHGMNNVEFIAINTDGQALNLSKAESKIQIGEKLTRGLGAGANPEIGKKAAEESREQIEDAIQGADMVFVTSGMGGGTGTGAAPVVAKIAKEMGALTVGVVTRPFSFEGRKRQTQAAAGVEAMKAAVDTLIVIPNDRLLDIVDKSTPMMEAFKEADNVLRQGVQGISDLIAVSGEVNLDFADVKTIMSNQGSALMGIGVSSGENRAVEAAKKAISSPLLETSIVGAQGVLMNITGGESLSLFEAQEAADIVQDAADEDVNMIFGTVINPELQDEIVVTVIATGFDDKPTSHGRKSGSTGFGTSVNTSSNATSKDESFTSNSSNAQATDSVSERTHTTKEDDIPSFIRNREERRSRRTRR
As to the kind of experiment: Induction of Staphylococcus aureus FtsZ self-polymerization assessed as increase in light scattering at 10 ug/mL by 90 deg angle light scattering assay. The settings on record: TDE = time-dependent effect.

For assay [6], the target named is T1, Cell division protein FtsZ (Staphylococcus aureus). As to the kind of experiment: Induction of Staphylococcus aureus FtsZ self-polymerization assessed as increase in light scattering at 20 ug/mL by 90 deg angle light scattering assay. The settings on record: TDE = time-dependent effect.
Assay [7] has the same target. As to the kind of experiment: Induction of Staphylococcus aureus FtsZ self-polymerization assessed as increase in light scattering at 20 ug/mL measured every 5 secs by 90 deg angle light scattering assay.
For assay [8] the target is unchanged. As to the kind of experiment: Inhibition of Staphylococcus aureus FtsZ self-polymerization assessed as decrease in light scattering at 20 ug/mL by 90 deg angle light scattering assay. The note with it: TDE = time-dependent effect.

Regarding `COc1cc2cc3c4cc(-c5ccc(C(C)(C)C)cc5)c(OC)c(OC)c4cc[n+]3cc2cc1OC.[Cl-]`, the MIC against Enterococcus faecalis [1] is 4 µg/mL; with Staphylococcus aureus [2], 4 µg/mL; in the assay with Enterococcus faecalis [3] it was 8 µg/mL; with Staphylococcus aureus [4], 4 µg/mL.

For the molecule `COc1cc2cc3c4cc(-c5cccc6ccccc56)c(OC)c(OC)c4cc[n+]3cc2cc1OC.[Cl-]`, the MIC in the assay with Enterococcus faecalis [1] is 8 µg/mL; against Staphylococcus aureus [2], 2 µg/mL; in the assay on Enterococcus faecalis [3], 8 µg/mL; with Staphylococcus aureus [4], 4 µg/mL.

Consider `CC(=O)OS(=O)(=O)[O-].COc1cc2cc3c4cc(-c5ccccc5)c(OC)c(OC)c4cc[n+]3c(C)c2cc1OC`, for which the MIC was 8 µg/mL with Enterococcus faecalis [1], 8 µg/mL in the assay on Staphylococcus aureus [2], 16 µg/mL in the assay with Enterococcus faecalis [3] and 2 µg/mL in the assay with Staphylococcus aureus [4].

Regarding `COc1cc2cc3c4cc(-c5ccccc5)c(OC)c(OC)c4cc[n+]3cc2cc1OC.[Cl-]`, the MIC against Enterococcus faecalis [1] was 16 µg/mL; in the assay with Staphylococcus aureus [2], 8 µg/mL; against Enterococcus faecalis [3] it was 32 µg/mL; against Staphylococcus aureus [4], 4 µg/mL.

With `COc1ccc2cc3[n+](cc2c1OC)CCc1cc2c(cc1-3)OCO2` [BERBERINE], the MIC with Enterococcus faecalis [1], in the assay on Staphylococcus aureus [2], in the assay with Enterococcus faecalis [3] and against Staphylococcus aureus [4] was more than 64 µg/mL in each case.

As for `CC(C)C(=O)OS(=O)(=O)[O-].COc1cc2cc3c4cc(-c5ccc(-c6ccccc6)cc5)c(OC)c(OC)c4cc[n+]3c(C(C)C)c2cc1OC`, the MIC in the assay with Enterococcus faecalis [1] was found to be 2 µg/mL; against Staphylococcus aureus [2], 0.5 µg/mL; against Enterococcus faecalis [3] it was 2 µg/mL; in the assay with Staphylococcus aureus [4], 0.5 µg/mL. In addition, the Activity entry in assay [5] and in assay [6] was “tde” in each case.

As for `CC(=O)OS(=O)(=O)[O-].COc1cc2cc3c4cc(-c5ccccc5)c(OC)cc4cc[n+]3c(C)c2cc1OC`, the MIC in the assay on Enterococcus faecalis [1] was more than 64 µg/mL; in the assay on Staphylococcus aureus [2], more than 64 µg/mL; with Enterococcus faecalis [3] it was more than 64 µg/mL; with Staphylococcus aureus [4] it was 8 µg/mL.

Regarding `COc1cc2cc[n+]3cc4cc(OC)c(OC)c(-c5ccc(-c6ccccc6)cc5)c4cc3c2cc1OC.[Cl-]`, the MIC in the assay with Enterococcus faecalis [1] worked out at 8 µg/mL; with Staphylococcus aureus [2] it was 4 µg/mL; in the assay on Enterococcus faecalis [3], 32 µg/mL; against Staphylococcus aureus [4] it was 2 µg/mL.

As to `CC(=O)OS(=O)(=O)[O-].COc1cc2cc3c4cc(-c5ccc(C(C)(C)C)cc5)c(OC)c(OC)c4cc[n+]3c(C)c2cc1OC`, the MIC against Enterococcus faecalis [1] was determined as 4 µg/mL; in the assay on Staphylococcus aureus [2] it was 2 µg/mL; in the assay on Enterococcus faecalis [3] it was 4 µg/mL; in the assay on Staphylococcus aureus [4], 1 µg/mL.

Turning to `Cc1onc(-c2ccccc2)c1C(=O)N[C@@H]1C(=O)N2[C@@H]1SC(C)(C)[C@@H]2C(=O)O` [OXACILLIN], the MIC was 8 µg/mL (≈ 19.9 µM) with Enterococcus faecalis [1], more than 64 µg/mL in the assay with Staphylococcus aureus [2], more than 64 µg/mL with Enterococcus faecalis [3] and 0.06 µg/mL (≈ 0.149 µM) against Staphylococcus aureus [4]. Besides, the result in assay [7] was inactive.

As for `CC(=O)OS(=O)(=O)[O-].COc1cc2cc3c4cc(-c5ccc(C)cc5)c(OC)cc4cc[n+]3c(C)c2cc1OC`, the MIC against Enterococcus faecalis [1] was 8 µg/mL; in the assay on Staphylococcus aureus [2], 8 µg/mL; in the assay on Enterococcus faecalis [3], more than 64 µg/mL; in the assay with Staphylococcus aureus [4] it was 4 µg/mL.

Take `COc1cc2cc3c4cc(-c5ccc(-c6ccccc6)cc5)c(OC)c(OC)c4cc[n+]3cc2cc1OC.[Cl-]`: the MIC with Enterococcus faecalis [1] came to 8 µg/mL; against Staphylococcus aureus [2] it was 2 µg/mL; against Enterococcus faecalis [3] it was 4 µg/mL; in the assay on Staphylococcus aureus [4] it was 2 µg/mL.

`COc1cc2c[n+]3ccc4c(OC)c(OC)ccc4c3cc2c(-c2ccc(-c3ccccc3)cc2)c1OC.[Cl-]`: the MIC was 8 µg/mL against Enterococcus faecalis [1], 8 µg/mL against Staphylococcus aureus [2], 16 µg/mL in the assay on Enterococcus faecalis [3] and 2 µg/mL with Staphylococcus aureus [4].

For `CC(=O)OS(=O)(=O)[O-].COc1cc2cc3c4cc(-c5ccc(-c6ccccc6)cc5)c(OC)c(OC)c4cc[n+]3c(C)c2cc1OC`, the MIC against Enterococcus faecalis [1] is 4 µg/mL; against Staphylococcus aureus [2], 2 µg/mL; in the assay with Enterococcus faecalis [3], 8 µg/mL; in the assay with Staphylococcus aureus [4], 1 µg/mL.

Take `CC(=O)OS(=O)(=O)[O-].COc1cc2cc[n+]3c(C)c4cc(OC)c(OC)c(-c5ccc(-c6ccccc6)cc5)c4cc3c2cc1OC`: the MIC was determined as 4 µg/mL in the assay with Enterococcus faecalis [1], 4 µg/mL in the assay with Staphylococcus aureus [2], 32 µg/mL against Enterococcus faecalis [3] and 1 µg/mL in the assay with Staphylococcus aureus [4]. Moreover, in assay [6], the Activity result is “tde”. For the same molecule, the inhibition entry in assay [8] is “tde”.

`CC[C@H]1OC(=O)[C@H](C)[C@@H](O[C@H]2C[C@@](C)(OC)[C@@H](O)[C@H](C)O2)[C@H](C)[C@@H](O[C@@H]2O[C@H](C)C[C@H](N(C)C)[C@H]2O)[C@](C)(O)C[C@@H](C)C(=O)[C@H](C)[C@@H](O)[C@]1(C)O` [ERYTHROMYCIN]: the MIC is 1 µg/mL (≈ 1.36 µM) against Enterococcus faecalis [1], more than 64 µg/mL against Staphylococcus aureus [2], more than 64 µg/mL against Enterococcus faecalis [3] and 0.13 µg/mL (≈ 0.177 µM) with Staphylococcus aureus [4].

In the case of `CC(=O)OS(=O)(=O)[O-].COc1cc2cc3c4cc(-c5cccc6ccccc56)c(OC)c(OC)c4cc[n+]3c(C)c2cc1OC`, the MIC against Enterococcus faecalis [1] was determined as 4 µg/mL; with Staphylococcus aureus [2] it was 2 µg/mL; in the assay on Enterococcus faecalis [3] it was 8 µg/mL; with Staphylococcus aureus [4], 1 µg/mL.

As for `CN[C@H](CC(C)C)C(=O)N[C@H]1C(=O)N[C@@H](CC(N)=O)C(=O)N[C@H]2C(=O)N[C@H]3C(=O)N[C@H](C(=O)N[C@H](C(=O)O)c4cc(O)cc(O)c4-c4cc3ccc4O)[C@H](O)c3ccc(c(Cl)c3)Oc3cc2cc(c3O[C@@H]2O[C@H](CO)[C@@H](O)[C@H](O)[C@H]2O[C@H]2C[C@](C)(N)[C@H](O)[C@H](C)O2)Oc2ccc(cc2Cl)[C@H]1O` [VANCOMYCIN], the MIC in the assay with Enterococcus faecalis [1] was 1 µg/mL (≈ 0.69 µM); against Enterococcus faecalis [3], more than 64 µg/mL.

`CCC[C@@H]1C[C@@H](C(=O)N[C@@H]([C@H]2O[C@H](SC)[C@H](O)[C@@H](O)[C@H]2O)[C@H](C)Cl)N(C)C1` [CLINDAMYCIN]: the MIC against Enterococcus faecalis [1] was 2 µg/mL (≈ 4.71 µM); against Staphylococcus aureus [2], more than 64 µg/mL; in the assay on Enterococcus faecalis [3], more than 64 µg/mL; in the assay on Staphylococcus aureus [4], 0.03 µg/mL (≈ 0.0706 µM).

Take `CN(C)[C@@H]1C(O)=C(C(N)=O)C(=O)[C@@]2(O)C(O)=C3C(=O)c4c(O)cccc4[C@@](C)(O)[C@H]3C[C@@H]12` [TETRACYCLINE]: the MIC was 0.5 µg/mL (≈ 1.13 µM) against Enterococcus faecalis [1], 64 µg/mL (≈ 144 µM) in the assay with Staphylococcus aureus [2], more than 64 µg/mL in the assay on Enterococcus faecalis [3] and 0.06 µg/mL (≈ 0.135 µM) against Staphylococcus aureus [4].

As to `COc1cc2cc3c4cc(-c5ccccc5)c(OC)cc4cc[n+]3cc2cc1OC.[Cl-]`, the MIC stood at 32 µg/mL against Enterococcus faecalis [1], 32 µg/mL in the assay with Staphylococcus aureus [2], 64 µg/mL against Enterococcus faecalis [3] and 8 µg/mL with Staphylococcus aureus [4].

As for `CC(=O)OS(=O)(=O)[O-].COc1cc2c(C)[n+]3ccc4c(OC)c(OC)ccc4c3cc2c(-c2ccc(-c3ccccc3)cc2)c1OC`, the MIC against Enterococcus faecalis [1] turned out to be 16 µg/mL; in the assay with Staphylococcus aureus [2] it was 4 µg/mL; in the assay on Enterococcus faecalis [3] it was 16 µg/mL; against Staphylococcus aureus [4], 1 µg/mL.

For `COc1cc2cc3c4cc(-c5ccc(C)cc5)c(OC)cc4cc[n+]3cc2cc1OC.[Cl-]`, the MIC was 16 µg/mL against Enterococcus faecalis [1], 8 µg/mL against Staphylococcus aureus [2], more than 64 µg/mL in the assay with Enterococcus faecalis [3] and 2 µg/mL with Staphylococcus aureus [4].

Broadly, the MIC is the smallest concentration in the dilution series that meets the test's criterion for growth inhibition. Read a low MIC as a more susceptible organism.
